# What was measured:
# [1] = tested on: differentiation of osteoclasts in co-culture of bone marrow cells and osteoblasts; assay: Osteoclast differentiation in co-culture of osteoblasts and bone marrow cells (TRAP staining); format: cell-based, ICR mice; settings: for Inhibitory activity on osteoclast differentiation in co-culture of bone marrow cells and osteoblasts: 4 μM; for TRAP-positive osteoclast cell number: co-culture, vitamin D3 and PGE2, 6 days, control 397+36.75
# Protocol: (§1) Primary osteoblasts, bone marrow cells and osteoclast precursor cells were cultured in α-Minimum Essential Medium (α-MEM, Gibco BRL) supplemented with 10% (v/v) fetal bovine serum (Gibco BRL), and 1× antibiotics containing penicillin/streptomycin (Gibco BRL).
# Until now, osteoclast cell lines have not been established, making it difficult to study differentiation of osteoclasts. Osteoclasts originate from hematopoietic stem cells derived from bone marrow, and differentiate with the help of osteoblasts/stromal cells. For these reasons, the co-culture system of osteoblasts and bone marrow cells is used for differentiation of osteoclasts. In these Experimental Examples, a differentiation system of bone marrow cells to osteoclasts was established by co-culture of osteoblasts and bone marrow cells, and, in this system, the CHJ-0014 compound was evaluated for its inhibitory effect on differentiation of osteoclasts.
# After sacrificing one-day postnatal ICR mice and disinfecting them in 70% ethanol, calvarias were collected using surgical scissors and forceps, cut into several pieces, and transferred into 3× HBSS contained in a 60-mm culture dish. 0.1% collagenase (Gibco BRL) and 0.2% dispase (Boehringer Mannheim) were added to the solution, followed by incubation at 37° C. for 15 min. The treatment of calvarias with collagenase and dispase was repeated 4 more times. From the second treatment of calvarias with collagenase and dispase, the solution was centrifuged after each treatment at 1600 rpm for 5 min to harvest cells, thereby collecting osteoblasts. The collected osteoblasts were plated onto a 100-mm culture dish at a density of about 1-2×10^6 cells, and cultured in 15 ml of α-MEM supplemented with 10% FBS for 3 days. Thereafter, the proliferated osteoblasts were aliquotted into cryo-vials, and stored in liquid nitrogen until use in co-culture of osteoblasts and bone marrow cells.
# (§2) After sacrificing 6-7 week ICR female mice by cervical dislocation and disinfecting their rear legs in 70% ethanol, tibias were isolated aseptically. The isolated tibias were placed into 3× HBSS (Gibco BRL), and soft tissue was completely removed. Both ends of tibias were cut, and 1×α-MEM was injected into bone marrow and then sucked up using a 1 ml syringe, collecting bone marrow cells. After sufficient suspending by pipetting, the collected bone marrow cells were centrifuged at 1600 rpm for 5 min to harvest cells. The resulting pellet (bone marrow cells and erythrocytes) was suspended in about 15-20 ml of ACK buffer (155 mM NH4Cl, 11 mM KHCO3, 0.01 mM EDTA). After incubation for 2 min, phosphate buffer was added to the cell suspension to minimize damage to bone marrow cells and lyse erythrocytes.
# (§3) Thereafter, the cell suspension was centrifuged (1600 rpm, 5 min), and the resulting cell pellet was suspended in 10% FBS-containing α-MEM.
# The isolated and cultured osteoblasts and bone marrow cells were co-cultured, as follows. Bone marrow cells and osteoblasts were plated onto a 48-well plate at a density of 2×10^5 cells and 2×10^4 cells per well, respectively, and co-cultured in 10% FBS-containing x-MEM. After adding vitamin D3 (10^−8 M) and PGE 2 (Prostaglandin E 2, 10^−6 M) to the culture medium, the cells were treated with the CHJ-0014 compound at various concentrations of 1.65 μM, 3.3 μM and 6.6 μM. A co-culture group not treated with the CHJ-0014 compound was used as a control. When the culture medium was exchanged with a fresh medium after incubation for 3 days, vitamin D3 (10^−8 M) and PGE 2 (10^−6 M) were again added to the medium, and the CHJ-0014 compound was also added to the medium at the same concentrations as above.
# After incubation for 6 days, the culture medium was removed, and completely differentiated osteoclasts were fixed with 10% formalin for 5 min. After removing formalin, the fixed osteoclasts were treated with 0.1% Triton X-100 for 10 sec. […]
# [2] = tested on: differentiation of osteoclasts in culture of bone marrow cells; assay: Osteoclast differentiation in culture of bone marrow cells induced by ODF and M-CSF (TRAP staining); format: cell-based, ICR mice; settings: for TRAP-positive osteoclast cell number: bone marrow cells, ODF 50 ng/ml, M-CSF 30 ng/ml, control 240±44
# Protocol: as §1, §2, §3
# In this test, to evaluate this possible scenario, only bone marrow cells were treated with a recombinant ODF protein and inhibitory activity of the CHJ-0014 compound on osteoclast differentiation was investigated in culture of only bone marrow cells. Bone marrow cells, isolated according to the same method as in Experimental Example 1, were plated onto a 48-well plate at a density of 4×10^5 cells, and cultured in 10% FBS-containing α-MEM. After adding ODF (50 ng/ml) and M-CSF (30 ng/ml) to the medium, the cells were treated with the CHJ-0014 compound at various concentrations of 0.825 μM, 1.65 μM, 3.3 μM and 6.6 μM. When the culture medium was exchanged with a fresh medium after incubation for 3 days, the cells were again treated with the identical amount of ODF, M-CSF and CHJ-0014. After incubation for 6 days, the culture medium was exchanged with a fresh medium, and the cells were further cultured for 2 more days.
# Completely differentiated osteoclasts were identified by TRAP staining. TRAP staining was carried out using the Leukocyte Acid Phosphatase Kit (Sigma, Cat. No. 387-A). The culture medium was removed, and completely differentiated osteoclasts were fixed with 10% formalin for 5 min. After removing formalin, the fixed osteoclasts were treated with 0.1% Trypton X-100 for 10 sec. After removing Trypton X-100, the cells were stained with a TRAP staining solution in the kit for 5 min. After eliminating the TRAP staining solution, the cells were washed with distilled water twice, dried, and TRAP-positive osteoclasts were counted under an optical microscope (×100).
# [3] = tested on: osteoclast precursor cells; assay: Differentiation of osteoclast precursor cells isolated from bone, ODF and M-CSF (TRAP staining); format: cell-based, ICR mice; settings: for TRAP-positive osteoclast cell number: osteoclast precursor cells, ODF 100 ng/ml, M-CSF 30 ng/ml, day 9, control 344±43.7
# Protocol: as §1
# Osteoclast progenitors derived from bone marrow cells migrate eventually to bone, differentiate to osteoclast precursors therein, and further differentiate to active osteoclasts having bone resorption ability and participate in bone resorption. That is, osteoclast precursor cells present in bone are at a different differentiation stage from the active osteoclasts. Recently, a cytokine playing a critical role in osteoclast differentiation was identified to be ODF (also called OPGL or RANKL), and a recombinant ODF protein can be produced on a large scale, thereby facilitating osteoclast differentiation by primary cell culture.
# Osteoclast precursor cells were isolated from […]. After sacrificing 5-6 week ICR female mice by cervical dislocation and disinfecting their rear legs in 70% ethanol, tibias and femurs were isolated aseptically. After removing soft tissue according to the same method as in Example 2 from the isolated tibias and femurs, 3× HBSS (Gibco BRL) was injected into bone marrow several times, thereby collecting bone marrow cells, as follows. Bone was cut into small pieces using a surgical scissor, and incubated in a collagenase solution (1 mg/ml collagenase type II, 0.05% trypsin, 4 mM EDTA, Gibco BRL) contained in a culture dish at 37° C. for 15 min. The collagenase treatment was carried out 4 more times. After being treated three times, bone pieces were further cut into a smaller size. After one more treatment with collagenase, the bone pieces were washed with 3× HBSS five times. After completely removing the enzyme solution by centrifugation, the bone pieces were suspended in pre-cooled α-MEM, and placed onto ice for 15 min. After vortexing for 1 min, an equal volume of α-MEM was added to the bone suspension, followed by incubation on ice for 15 min. The bone suspension was filtered through a sterilized mass, and the obtained cells were cultured in 10% FBS-containing α-MEM.
# The isolated and cultured osteoclast precusor cells were plated onto a 48-well plate at a density of 0.5×10^6 cells. After adding ODF (100 ng/ml) and M-CSF (30 ng/ml) to the medium, the cells were treated with the CHJ-0014 compound at various concentrations of 0.825 μM, 1.65 μM, 3.3 μM and 6.6 μM. A group not treated with the CHJ-0014 compound was used as a control. When the culture medium was exchanged with a fresh medium after incubation for 3 days, the cells were again treated with the identical amount of ODF, M-CSF and CHJ-0014. On day 6 after culturing, the culture medium was exchanged with a fresh medium, according to the same method as in on day 3. On day 9, TRAP staining was carried out, and TRAP-positive osteoclasts were counted under an optical microscope (×100).
# [4] = tested on: osteoblasts; assay: Cytotoxicity by MTT assay, osteoblasts; format: cell-based, ICR mice; settings: 6.6 μM, 24 hrs
# [5] = tested on: murine bone marrow cells; assay: Cytotoxicity by MTT assay, bone marrow cells; format: cell-based; settings: 6.6 μM, 24 hrs
# [6] = tested on: peritoneal macrophages; assay: Cytotoxicity by MTT assay, peritoneal macrophages; format: cell-based; settings: 6.6 μM, 24 hrs
# [7] = tested on: human embryonic kidney cell line 293T; assay: Cytotoxicity by MTT assay, 293T cells; format: cell-based; settings: 6.6 μM, 24 hrs
# [8] = tested on: transcription factor NF-κB; assay: NF-κB activity by EMSA (electrophoresis mobility shift assay) in osteoclasts; format: cell-based; settings: osteoclast nuclear extract
# Protocol: The CHJ-0014 compound was investigated for its inhibitory effect on the activity of the transcription factor NF-κB participating in osteoclast differentiation by performing EMSA (electrophoresis mobility shift assay). Osteoclasts were prepared according to the same method as in Experimental Experiment 3, and incubated in hypotonic lysis buffer (10 mM HEPES, pH 7.9, 1.5 mM MgCl2, 10 mM KCl, 0.5 mM DTT, 0.5 mM PMSF) on ice for 10 min. The osteoclast-containing solution was transferred into a microcentrifuge, supplemented with 0.1% NP40, and incubated for 15 min with occasional agitation. After centrifugation (4,000 rpm, 15 min), the resulting cell pellet was suspended in 15 μl of high salt buffer (20 mM HEPES, pH 7.9, 420 mM NaCl, 25% glycerol, 1.5 mM MgCl2, 0.2 mM EDTA, 0.5 mM PMSF, 0.5 mM DTT), and placed onto ice for 20 min. 75 μl of storage buffer (20 mM HEPES, pH 7.9, 100 mM NaCl, 20% glycerol, 0.2 mM EDTA, 0.5 mM PMSF, 0.5 mM DTT) was added to the cell suspension, and incubated with agitation for 10 sec. After centrifugation (14,000 rpm, 20 min), the resulting supernatant was subjected to protein quantitative assay. Protein assay was performed using a DC Protein Assay Kit (Bio-Rad).
# A NF-κB-specific oligomer (5′-AGTTGAGGGGACTTTCCCA GGC-3′, Santa Cruz) was radiolabeled using [γ-^32P]ATP and […], and used as a probe. […]
smiles,measurement,setting,value
"CCCCCCCCCCCCCCCCCC(=O)NC(CO)COP(=O)([O-])OCC[N+](C)(C)C [CHJ-0013, N-stearoyl-O-phosphocholine-L-serine methylhydroxy]",Inhibitory activity on osteoclast differentiation in co-culture of bone marrow cells and osteoblasts,[1],inhibit osteoclast differentiation
"CCCCCCCCCCCCCCCCCC(=O)NC(CO)COP(=O)(O)OCC[N+](C)(C)C [CHJ-0014, N-stearoyl-O-phosphocholine-D-serine methylhydroxy]",TRAP-positive osteoclast cell number,[1]; 1.65 μM,80±6.1
same,TRAP-positive osteoclast cell number,[1]; 3.3 μM,46±4.7
same,Inhibitory activity on osteoclast differentiation in co-culture of bone marrow cells and osteoblasts,[1],inhibit osteoclast differentiation
same,TRAP-positive osteoclast cell number,[1]; 6.6 μM,16±6.4
same,Effect on differentiation of osteoclasts in co-culture of bone marrow cells and osteoblasts,[1]; 1.65-6.6 μM,inhibits differentiation of osteoclasts in co-culture of bone marrow cells and osteoblasts in a dose-dependent manner
same,TRAP-positive osteoclast cell number,[2]; 0.825 μM,185±12.9
same,TRAP-positive osteoclast cell number,[2]; 1.65 μM,172+9.3
same,TRAP-positive osteoclast cell number,[2]; 3.3 μM,87+3.5
same,TRAP-positive osteoclast cell number,[2]; 6.6 μM,36+3.6
same,Effect on osteoclast differentiation induced by ODF in bone marrow cells,[2]; 0.825-6.6 μM,inhibits osteoclast differentiation induced by ODF in bone marrow cells in a dose-dependent manner
same,TRAP-positive osteoclast cell number,[3]; 0.825 μM,318±19.3
same,TRAP-positive osteoclast cell number,[3]; 1.65 μM,318±50.4
same,TRAP-positive osteoclast cell number,[3]; 3.3 μM,267±24
same,TRAP-positive osteoclast cell number,[3]; 6.6 μM,152±29.1
same,Effect on osteoclast differentiation during differentiation of osteoclast precursors isolated from bone,[3]; 0.825-6.6 μM,inhibits osteoclast differentiation during differentiation of osteoclast precursors isolated from bone in a dose-dependent manner
same,Cytotoxicity (MTT),[4],did not show cytotoxicity
same,Cytotoxicity (MTT),[5],did not show cytotoxicity
same,Cytotoxicity (MTT),[6],did not show cytotoxicity
same,Cytotoxicity (MTT),[7],did not show cytotoxicity
same,Effect on activation of the transcription factor NF-κB by osteoclast differentiation factor (ODF),[8],suppress activation of the transcription factor NF-κB
